The record followed here is ChEMBL document CHEMBL4261494, “Design, synthesis and biological evaluation of novel Schiff base-bridged tetrahydroprotoberberine triazoles as a new type of potential antimicrobial agents” (Medchemcomm, 2017).

Converted amounts (≈) assume the structure as drawn. The source made the active and inactive calls. The rule behind the calls is not given here.

One data set concerns Shigella dysenteriae. In kind it is functional. As to conditions: 24 h.
The subject of data set [1] is Staphylococcus aureus. In kind it is functional. As to conditions: N315, 24 h.
In data set [2] the test system is Escherichia coli. Format: functional. The note with it: JM109, 24 h.
The subject of a further data set is Bacillus spizizenii. Format: functional. As to conditions: ATCC 6633, 24 h.
For another data set, the system named is Proteus vulgaris. In kind it is functional. As to conditions: ATCC 13315, 24 h.
Data set [3] concerns Salmonella typhi. The experiment in a line: microbe, parasite or virus in culture. The note with it: Salmonella enterica, 24 h.
The next data set deals with Pseudomonas aeruginosa. In kind it is functional. As to conditions: ATCC 27853, 24 h.
The test system of data set [4] is Staphylococcus aureus. Briefly: Antibacterial activity against methicillin-resistant Staphylococcus aureus N315 after 5 passages. In kind it is functional, organism-based.
Data set [5] has as its system Escherichia coli. Format: functional. The note with it: DH52, 24 h.
The subject of the next data set is Micrococcus luteus. In kind it is functional. The note with it: ATCC 4698, 24 h.
Data set [6] concerns Staphylococcus aureus. Format: functional. As to conditions: ATCC 25923, 24 h.
For data set [7], the system named is DNA. The experiment in a line: Induction of Escherichia coli supercoiled pUC19 DNA cleavage at 0.0125 mM after 16 hrs in absence of Zn2+ by ethidium bromide staining-based agarose gel electrophoresis method. Format: nucleic-acid assay.
A short description of data set [8]: Aqueous solubility of the compound in pH 7.4 phosphate buffer at 1 mg after 3 hrs by UV absorption analysis. Format: physicochemical.
The subject of data set [9] is DNA. The experiment in a line: Induction of Escherichia coli supercoiled pUC19 DNA cleavage at 0.0125 mM after 16 hrs in presence of Zn2+ by ethidium bromide staining-based agarose gel electrophoresis method. Format: nucleic-acid assay.
Data set [10] has as its system Calf thymus DNA. The experiment in a line: Binding affinity to calf thymus DNA by UV absorption spectral analysis. As to conditions: Bos taurus. In kind it is nucleic-acid assay.
Data set [11] has as its system Calf thymus DNA. Briefly: Binding affinity to calf thymus DNA assessed as increase in hypochromic effect up to 2 x 10^-5 mol/L by UV absorption spectral analysis. In kind it is nucleic-acid assay. As to conditions: Bos taurus.
Data set [12] relates to Staphylococcus aureus. Briefly: Bactericidal activity against methicillin-resistant Staphylococcus aureus N315 assessed as log reduction in viable bacterial count at 4 times MIC incubated up to 1 hr followed by replating on yeast-dextrose agar plates and measured after 24 hrs by time kill assay. In kind it is functional.
The test system of the next data set is Aspergillus flavus. In kind it is functional. As to conditions: ATCC 204304, 24 h.
The target in data set [13] is T1, Albumin (Homo sapiens, UniProt P02768). Briefly: Binding affinity to HSA assessed as quenching constant at 310 K by UV-vis absorption spectral analysis. Format: ADME. As to conditions: isolated protein.
A further data set has as its system Kregervanrija fluxuum. Format: functional. As to conditions: ATCC 9888, 24 h.
The subject of data set [14] is Staphylococcus aureus. Briefly: Potency index, ratio of chloromycin MIC to test compound MIC for methicillin-resistant Staphylococcus aureus N315. Format: functional.
The test system of the next data set is Candida albicans. In kind it is functional. The note with it: ATCC 10231, 24 h.
The subject of data set [15] is Calf thymus DNA. Briefly: Inhibition of neutral red binding to calf thymus DNA up to 2 x 10^-5 mol/L by UV absorption spectral analysis. In kind it is nucleic-acid assay. As to conditions: Bos taurus.
For another data set, the system named is Cyberlindnera jadinii. Format: functional. As to conditions: Williopsis jadinii, ATCC 9950, 24 h.
Data set [16] deals with T1, Albumin. The experiment in a line: Binding affinity to HSA assessed as quenching constant at 288 K by UV-vis absorption spectral analysis. Format: ADME. The note with it: isolated protein.
The test system of the next data set is Saccharomyces cerevisiae. In kind it is functional. As to conditions: 24 h.
Data set [17] relates to Staphylococcus aureus. The experiment in a line: Antibacterial activity against methicillin-resistant Staphylococcus aureus N315 after 14 passages. In kind it is functional, organism-based.
Data set [18] has as its target T1, Albumin. The experiment in a line: Binding affinity to HSA assessed as quenching constant at 298 K by UV-vis absorption spectral analysis. Format: ADME. As to conditions: isolated protein.
The test system of data set [19] is Staphylococcus aureus. The experiment in a line: Potency index, ratio of norfloxacin MIC to test compound MIC for methicillin-resistant Staphylococcus aureus N315. In kind it is functional.
In data set [20] the test system is Escherichia coli. Briefly: Potency index, ratio of chloromycin MIC to test compound MIC for Escherichia coli JM109. In kind it is functional.
The subject of data set [21] is Salmonella typhi. Briefly: Potency index, ratio of chloromycin MIC to test compound MIC for Bacillus typhi. Format: functional, Salmonella enterica subsp. enterica serovar Typhi.

T1 sequence (P02768 whole entry): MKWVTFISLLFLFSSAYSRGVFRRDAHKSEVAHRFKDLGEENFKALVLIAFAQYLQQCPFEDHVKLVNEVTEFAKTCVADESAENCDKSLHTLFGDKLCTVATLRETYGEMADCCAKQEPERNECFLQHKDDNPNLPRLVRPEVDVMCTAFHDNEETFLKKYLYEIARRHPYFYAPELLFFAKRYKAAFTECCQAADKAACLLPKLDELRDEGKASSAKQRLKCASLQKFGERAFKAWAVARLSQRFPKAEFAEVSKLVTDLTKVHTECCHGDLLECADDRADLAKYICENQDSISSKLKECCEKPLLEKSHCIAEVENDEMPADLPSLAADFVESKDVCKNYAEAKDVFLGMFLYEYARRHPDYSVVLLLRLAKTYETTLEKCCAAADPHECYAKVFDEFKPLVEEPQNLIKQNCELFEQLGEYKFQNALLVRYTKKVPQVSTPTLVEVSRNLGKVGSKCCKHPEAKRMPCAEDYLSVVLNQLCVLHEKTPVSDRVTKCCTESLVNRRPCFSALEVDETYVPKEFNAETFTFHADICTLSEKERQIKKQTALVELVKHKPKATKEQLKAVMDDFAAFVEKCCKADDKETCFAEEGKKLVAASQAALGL

For `CCn1cc(C(=O)O)c(=O)c2cc(F)c(N3CCNCC3)cc21` [NORFLOXACIN], the MIC against Shigella dysenteriae is 4 µg/mL (≈ 12.5 µM); against Staphylococcus aureus [1], 8 µg/mL (≈ 25.1 µM); in the data set with Escherichia coli [2] it was 1 µg/mL (≈ 3.13 µM); in the data set on Bacillus spizizenii, 4 µg/mL (≈ 12.5 µM); against Proteus vulgaris, 8 µg/mL (≈ 25.1 µM); against Salmonella typhi [3] it was 4 µg/mL (≈ 12.5 µM). In addition, the MIC in the data set on Pseudomonas aeruginosa came out at 16 µg/mL (≈ 50.1 µM); with Escherichia coli [5], 1 µg/mL (≈ 3.13 µM); against Micrococcus luteus, 4 µg/mL (≈ 12.5 µM); with Staphylococcus aureus [6], 0.5 µg/mL (≈ 1.57 µM). Also, the outcome in the data set on Staphylococcus aureus [4] was inactive.

In general, solubility refers to the dissolved amount per volume that the medium holds. With `COc1ccc2cc3[n+](cc2c1OC)CCc1cc2c(cc1-3)OCO2` [BERBERINE], the MIC was 256 µg/mL against Shigella dysenteriae; 128 µg/mL in the data set with Staphylococcus aureus [1]; above 512 µg/mL in the data set with Bacillus spizizenii; 256 µg/mL against Pseudomonas aeruginosa; above 512 µg/mL with Escherichia coli [5]; above 512 µg/mL with Micrococcus luteus. For the same compound, the MIC against Staphylococcus aureus [6] stood at 512 µg/mL. In addition, in the data set with DNA [7], the result was inactive. The compound further gave a solubility at 3 h in [8] of 85 µg/mL.

On to `COc1cc(/C=N/n2cnnc2)c2c(c1OCc1ccccc1)CN1CCc3cc4c(cc3C1C2)OCO4` (stereo unspecified), for which the result in the data set on DNA [9], in the data set on Calf thymus DNA [11] and with Staphylococcus aureus [17] was Active. Also, in the data set on Calf thymus DNA [10], the K worked out at 2.27 ×10⁴ L/mol. Also, the MIC in the data set with Shigella dysenteriae is 32 µg/mL (≈ 62.8 µM); in the data set on Staphylococcus aureus [1], 2 µg/mL (≈ 3.92 µM); against Escherichia coli [2] it was 32 µg/mL (≈ 62.8 µM); against Aspergillus flavus, 0.5 to 32 µg/mL (≈ 0.981 to 62.8 µM); against Bacillus spizizenii it was 32 µg/mL (≈ 62.8 µM); against Proteus vulgaris, 16 µg/mL (≈ 31.4 µM). Further, the MIC was 4 µg/mL (≈ 7.85 µM) with Salmonella typhi [3]; 0.5 to 32 µg/mL (≈ 0.981 to 62.8 µM) against Kregervanrija fluxuum; 8 µg/mL (≈ 15.7 µM) with Pseudomonas aeruginosa; 16 µg/mL (≈ 31.4 µM) against Escherichia coli [5]; 0.5 to 32 µg/mL (≈ 0.981 to 62.8 µM) with Candida albicans; 1 µg/mL (≈ 1.96 µM) against Micrococcus luteus. For the same compound, the results for the MIC with Cyberlindnera jadinii, in the data set with Saccharomyces cerevisiae and against Staphylococcus aureus [6] were 0.5 to 32 µg/mL (≈ 0.981 to 62.8 µM), 0.5 µg/mL (≈ 0.981 µM) and 8 µg/mL (≈ 15.7 µM), respectively. The FC with Staphylococcus aureus [12] is on record as above 3. For the same compound, the Kq came to 1.7 ×10¹³ L/mol/s on Albumin [13], 2.55 ×10¹³ L/mol/s on Albumin [16] and 2.05 ×10¹³ L/mol/s at Albumin [18]. Besides, the result with DNA [7] was inactive. Also, the results for the Ratio in the data set on Staphylococcus aureus [14] and with Staphylococcus aureus [19] were 8 and 4, respectively. In addition, the inhibition entry in the data set on Calf thymus DNA [15] is “Active”. In [8], this compound displayed a solubility at 3 h of 178 µg/mL (≈ 349 µM).

Consider `CCCCCCOc1c(OC)cc(/C=N/n2cnnc2)c2c1CN1CCc3cc4c(cc3C1C2)OCO4` (stereo unspecified), for which the MIC against Shigella dysenteriae was 8 µg/mL (≈ 15.9 µM); in the data set with Staphylococcus aureus [1], 32 µg/mL (≈ 63.5 µM); in the data set with Escherichia coli [2], 4 µg/mL (≈ 7.94 µM); against Aspergillus flavus, 2 to 32 µg/mL (≈ 3.97 to 63.5 µM); against Bacillus spizizenii, 8 µg/mL (≈ 15.9 µM); against Proteus vulgaris, 16 µg/mL (≈ 31.8 µM). The MIC in the data set on Salmonella typhi [3] was 2 µg/mL (≈ 3.97 µM); against Kregervanrija fluxuum, 2 to 32 µg/mL (≈ 3.97 to 63.5 µM); in the data set with Pseudomonas aeruginosa, 32 µg/mL (≈ 63.5 µM); against Escherichia coli [5] it was 32 µg/mL (≈ 63.5 µM); in the data set on Candida albicans, 2 to 32 µg/mL (≈ 3.97 to 63.5 µM); in the data set with Micrococcus luteus, 16 µg/mL (≈ 31.8 µM). Also, the MIC in the data set with Cyberlindnera jadinii is 2 to 32 µg/mL (≈ 3.97 to 63.5 µM); in the data set on Saccharomyces cerevisiae it was 2 to 32 µg/mL (≈ 3.97 to 63.5 µM); against Staphylococcus aureus [6], 8 µg/mL (≈ 15.9 µM). The Ratio was 8 with Escherichia coli [20] and 16 in the data set with Salmonella typhi [21]. In [8], the solubility at 3 h amounted to 442 µg/mL (≈ 878 µM).
